According to patent US20130281467A1, “NOVEL MICROBICIDES” (SYNGENTA PARTICIPATIONS AG, priority 2010, published 2013):
Each block holds one molecule with its values, some of them ahead of it.

Assays:
[1] = system: Monographella nivalis (Microdochium nivale); assay: Fungicidal activity against Monographella nivalis (Microdochium nivale) / liquid culture (foot rot cereals); assay type: cell-based; conditions: 4-5 days after application, read-out: disease control (inhibition of growth, photometrically)
Procedure: (§1) Fungicidal Activity Against Monographella nivalis (Microdochium nivale)/Liquid Culture (Foot Rot Cereals) Conidia of the fungus from cryogenic storage were directly mixed into nutrient broth (PDB potato dextrose broth). After placing a (DMSO) solution of test compound into a microtiter plate (96-well format), the nutrient broth containing the fungal spores was added. The test plates were incubated at 24° C. and the inhibition of growth was determined photometrically 4-5 days after application.

[2] = system: Botryotinia fuckeliana (Botrytis cinerea); assay: Fungicidal activity against Botryotinia fuckeliana (Botrytis cinerea) / liquid culture (gray mould); assay type: cell-based; conditions: 3-4 days after application, read-out: disease control (inhibition of growth, photometrically)
Procedure: as §1, with “Botryotinia fuckeliana (Botrytis cinerea)/Liquid” for “Monographella nivalis (Microdochium nivale)/Liquid”, “(Gray Mould)” for “(Foot Rot Cereals)”, “(Vogels” for “(PDB potato dextrose”, “3-4” for “4-5”

Gaeumannomyces graminis = assay: Fungicidal activity against Gaeumannomyces graminis / liquid culture (take-all of cereals); assay type: cell-based; conditions: 4-5 days after application, read-out: disease control (inhibition of growth, photometrically)
Procedure: as §1, with “Against Gaeumannomyces graminis/Liquid” for “Against Monographella nivalis (Microdochium nivale)/Liquid”, “Culture (Take-all of” for “Culture (Foot Rot”, “Cereals) Mycelial fragments” for “Cereals) Conidia”, “spores iss” for “spores was”

[3] = system: Phaeosphaeria nodorum (Septoria nodorum); assay: Fungicidal activity against Phaeosphaeria nodorum (Septoria nodorum) / wheat / leaf disc preventative (glume blotch); assay type: in vivo; conditions: Parastagonospora nodorum, foliar, wheat leaf segments, inoculated 2 days after application, compared to untreated, read-out: disease control
Procedure: Fungicidal Activity Against Phaeosphaeria nodorum (Septoria nodorum)/Wheat/Leaf Disc Preventative (Glume Blotch) Wheat leaf segments cv. Kanzler were placed on agar in a multiwell plate (24-well format) and sprayed with the formulated test compound diluted in water. The leaf disks were inoculated with a spore suspension of the fungus 2 days after application. The inoculated test leaf disks were incubated at 20° C. and 75% rh under a light regime of 12 h light/12 h darkness in a climate cabinet and the activity of a compound was assessed as percent disease control compared to untreated when an appropriate level of disease damage appears in untreated check leaf disks (5-7 days after application).

[4] = system: Glomerella lagenarium (Colletotrichum lagenarium); assay: Fungicidal activity against Glomerella lagenarium (Colletotrichum lagenarium) / liquid culture (anthracnose); assay type: cell-based; conditions: Colletotrichum orbiculare, 3-4 days after application, read-out: disease control (inhibition of growth, photometrically)
Procedure: as §1, with “Glomerella lagenarium (Colletotrichum lagenarium)/Liquid” for “Monographella nivalis (Microdochium nivale)/Liquid”, “(Anthracnose)” for “(Foot Rot Cereals)”, “measured” for “determined”, “3-4” for “4-5”

[5] = system: Blumeria graminis f. Sp. tritici (Erysiphe graminis f. sp. tritici); assay: Fungicidal activity against Blumeria graminis f. sp. tritici / wheat / leaf disc preventative (powdery mildew on wheat); assay type: in vivo; conditions: foliar, wheat leaf segments, inoculated 1 day after application, compared to untreated, read-out: disease control
Procedure: Fungicidal Activity Against Blumeria graminis f. Sp. tritici (Erysiphe graminis f. sp. tritici)/Wheat/Leaf Disc Preventative (Powdery Mildew on Wheat)
Wheat leaf segments cv. Kanzler were placed on agar in a multiwell plate (24-well format) and sprayed with the formulated test compound diluted in water. The leaf disks were inoculated by shaking powdery mildew infected plants above the test plates 1 day after application. The inoculated leaf disks were incubated at 20° C. and 60% rh under a light regime of 24 h darkness followed by 12 h light/12 h darkness in a climate chamber and the activity of a compound was assessed as percent disease control compared to untreated when an appropriate level of disease damage appears on untreated check leaf segments (6-8 days after application).

[6] = system: Mycosphaerella arachidis (Cercospora arachidicola); assay: Fungicidal activity against Mycosphaerella arachidis (Cercospora arachidicola) / liquid culture (early leaf spot); assay type: cell-based; conditions: 4-5 days after application, read-out: disease control (inhibition of growth, photometrically)
Procedure: as §1, with “Mycosphaerella arachidis (Cercospora arachidicola)/Liquid” for “Monographella nivalis (Microdochium nivale)/Liquid”, “(Early Leaf Spot)” for “(Foot Rot Cereals)”

[7] = system: Puccinia recondita f. sp. tritici; assay: Fungicidal activity against Puccinia recondita f. sp. tritici / wheat / leaf disc preventative (brown rust); assay type: in vivo; conditions: foliar, wheat leaf segments, inoculated 1 day after application, compared to untreated, read-out: disease control
Procedure: Fungicidal Activity Against Puccinia recondita f. sp. tritici/Wheat/Leaf Disc Preventative (Brown Rust) Wheat leaf segments cv. Kanzler were placed on agar in multiwell plates (24-well format) and sprayed with the formulated test compound diluted in water. The leaf disks were inoculated with a spore suspension of the fungus 1 day after application. The inoculated leaf segments were incubated at 19° C. and 75% rh under a light regime of 12 h light/12 h darkness in a climate cabinet and the activity of a compound was assessed as percent disease control compared to untreated when an appropriate level of disease damage appears in untreated check leaf segments (7-9 days after application).

Pyrenophora teres = assay: Fungicidal activity against Pyrenophora teres / barley / leaf disc preventative (net blotch); assay type: in vivo; conditions: foliar, barley leaf segments, inoculated 2 days after application, compared to untreated, read-out: disease control
Procedure: Fungicidal Activity Against Pyrenophora teres/Barley/Leaf Disc Preventative (Net Blotch) Barley leaf segments cv. Hasso were placed on agar in a multiwell plate (24-well format) and sprayed with the formulated test compound diluted in water. The leaf segments were inoculated with a spore suspension of the fungus 2 days after application. The inoculated leaf segments were incubated at 20° C. and 65% rh under a light regime of 12 h light/12 h darkness in a climate cabinet and the activity of a compound was assessed as disease control compared to untreated when an appropriate level of disease damage appears in untreated check leaf segments (5-7 days after application).

[8] = system: Thanatephorus cucumeris (Rhizoctonia solani); assay: Fungicidal activity against Thanatephorus cucumeris (Rhizoctonia solani) / liquid culture (foot rot, damping-off); assay type: cell-based; conditions: 3-4 days after application, read-out: disease control (inhibition of growth, photometrically)
Procedure: Fungicidal Activity Against Thanatephorus cucumeris (Rhizoctonia solani)/Liquid Culture (Foot Rot, Damping-Off) Mycelia fragments of a newly grown liquid culture of the fungus were directly mixed into nutrient broth (PDB potato dextrose broth). After placing a (DMSO) solution of the test compounds into a microtiter plate (96-well format), the nutrient broth containing the fungal material was added. The test plates were incubated at 24° C. and the inhibition of growth was determined photometrically 3-4 days after application.

[9] = system: Mycosphaerella graminicola (Septoria tritici); assay: Fungicidal activity against Mycosphaerella graminicola (Septoria tritici) / liquid culture (Septoria blotch); assay type: cell-based; conditions: Zymoseptoria tritici, 4-5 days after application, read-out: disease control (inhibition of growth, photometrically)
Procedure: as §1, with “Mycosphaerella graminicola (Septoria tritici)/Liquid” for “Monographella nivalis (Microdochium nivale)/Liquid”, “(Septoria Blotch)” for “(Foot Rot Cereals)”

SMILES: N#Cc1cccc(Cc2cccc(-c3ncc4c(n3)CCOC4)n2)c1 [Compound 8]
- melting point: 206 to 207 °C

SMILES: CO/N=C1\CCCc2nc(-c3cccc(Cc4ccccc4)n3)ncc21 [Compound 9]
- inhibition at 200 ppm [1]: ≥ 80%
- melting point: 213 to 215 °C
- inhibition at 200 ppm [2]: ≥ 80%
- inhibition at 200 ppm (Gaeumannomyces graminis): ≥ 80%
- pest or weed control at 200 ppm [3]: ≥ 80%
- inhibition at 200 ppm [4]: ≥ 80%
- pest or weed control at 200 ppm [5]: ≥ 80%
- inhibition at 200 ppm [6]: ≥ 80%
- pest or weed control at 200 ppm [7]: ≥ 80%
- pest or weed control at 200 ppm (Pyrenophora teres): ≥ 80%

SMILES: CO/N=C1\CC(C)(C)Cc2nc(-c3cccc(Cc4ccccc4OC)n3)ncc21 [Compound 10]
- melting point: 239 to 241 °C

SMILES: COc1ccc(Cc2cccc(-c3ncc4c(n3)CCCCC4)n2)cc1 [Compound 35]
- inhibition at 200 ppm [1]: ≥ 80%
- inhibition at 200 ppm [2]: ≥ 80%
- inhibition at 200 ppm [8]: ≥ 80%
- inhibition at 200 ppm (Gaeumannomyces graminis): ≥ 80%
- pest or weed control at 200 ppm [3]: ≥ 80%
- inhibition at 200 ppm [4]: ≥ 80%
- pest or weed control at 200 ppm [5]: ≥ 80%
- inhibition at 200 ppm [6]: ≥ 80%
- pest or weed control at 200 ppm [7]: ≥ 80%
- inhibition at 200 ppm [9]: ≥ 80%
- pest or weed control at 200 ppm (Pyrenophora teres): ≥ 80%

SMILES: COc1ccc(Cc2cccc(-c3ncc4c(n3)CC(C)(C)CC4)n2)cc1 [Compound 37]
- inhibition at 200 ppm [1]: ≥ 80%
- inhibition at 200 ppm [2]: ≥ 80%
- inhibition at 200 ppm [8]: ≥ 80%
- inhibition at 200 ppm (Gaeumannomyces graminis): ≥ 80%
- pest or weed control at 200 ppm [3]: ≥ 80%
- inhibition at 200 ppm [4]: ≥ 80%
- pest or weed control at 200 ppm [5]: ≥ 80%
- inhibition at 200 ppm [6]: ≥ 80%
- pest or weed control at 200 ppm [7]: ≥ 80%
- inhibition at 200 ppm [9]: ≥ 80%
- pest or weed control at 200 ppm (Pyrenophora teres): ≥ 80%

SMILES: COc1ccc(Cc2cccc(-c3ncc4c(n3)CCCC4)n2)cn1 [Compound 41]
- inhibition at 200 ppm [1]: ≥ 80%
- inhibition at 200 ppm [2]: ≥ 80%
- inhibition at 200 ppm [8]: ≥ 80%
- inhibition at 200 ppm (Gaeumannomyces graminis): ≥ 80%
- pest or weed control at 200 ppm [3]: ≥ 80%
- inhibition at 200 ppm [4]: ≥ 80%
- pest or weed control at 200 ppm [5]: ≥ 80%
- inhibition at 200 ppm [6]: ≥ 80%
- pest or weed control at 200 ppm [7]: ≥ 80%
- inhibition at 200 ppm [9]: ≥ 80%
- pest or weed control at 200 ppm (Pyrenophora teres): ≥ 80%

SMILES: COc1ccc(Cc2cccc(-c3ncc4c(n3)CC(C)(C)CC4)n2)cn1 [Compound 42]
- inhibition at 200 ppm [1]: ≥ 80%
- inhibition at 200 ppm [2]: ≥ 80%
- inhibition at 200 ppm [8]: ≥ 80%
- inhibition at 200 ppm (Gaeumannomyces graminis): ≥ 80%
- pest or weed control at 200 ppm [3]: ≥ 80%
- inhibition at 200 ppm [4]: ≥ 80%
- pest or weed control at 200 ppm [5]: ≥ 80%
- inhibition at 200 ppm [6]: ≥ 80%
- pest or weed control at 200 ppm [7]: ≥ 80%
- inhibition at 200 ppm [9]: ≥ 80%
- pest or weed control at 200 ppm (Pyrenophora teres): ≥ 80%

SMILES: COc1ccc(C(C)c2cccc(-c3ncc4c(n3)CCCC4)n2)nc1 (centres unmarked) [Compound 44]
- inhibition at 200 ppm [1]: ≥ 80%
- inhibition at 200 ppm [2]: ≥ 80%
- inhibition at 200 ppm [8]: ≥ 80%
- inhibition at 200 ppm (Gaeumannomyces graminis): ≥ 80%
- pest or weed control at 200 ppm [3]: ≥ 80%
- inhibition at 200 ppm [4]: ≥ 80%
- pest or weed control at 200 ppm [5]: ≥ 80%
- inhibition at 200 ppm [6]: ≥ 80%
- pest or weed control at 200 ppm [7]: ≥ 80%
- inhibition at 200 ppm [9]: ≥ 80%
- pest or weed control at 200 ppm (Pyrenophora teres): ≥ 80%

Further lines, with some results ahead:

- melting point: 183 to 184 °C
SMILES: CC1(C)CCc2cnc(-c3cccc(Cc4ccc(Cl)cc4)n3)nc2C1 [Compound 12]
- inhibition at 200 ppm [2]: ≥ 80%
- inhibition at 200 ppm [6]: ≥ 80%

- melting point: 272 to 273 °C
SMILES: CC1(C)CCc2cnc(-c3cccc(Cc4ccccc4Cl)n3)nc2C1 [Compound 13]
- inhibition at 200 ppm [1]: ≥ 80%
- inhibition at 200 ppm [2]: ≥ 80%
- inhibition at 200 ppm [8]: ≥ 80%
- pest or weed control at 200 ppm [3]: ≥ 80%
- inhibition at 200 ppm [4]: ≥ 80%
- inhibition at 200 ppm [6]: ≥ 80%
- inhibition at 200 ppm [9]: ≥ 80%

- melting point: 251 to 252 °C
SMILES: COc1ccccc1Cc1cccc(-c2ncc3c(n2)CC(C)(C)CC3)n1 [Compound 14, 2-[6-(2-methoxybenzyl)-pyridin-2-yl]-7,7-dimethyl-5,6,7,8-tetrahydroquinazoline]
- inhibition at 200 ppm [1]: ≥ 80%
- inhibition at 200 ppm [2]: ≥ 80%
- inhibition at 200 ppm [8]: ≥ 80%
- inhibition at 200 ppm (Gaeumannomyces graminis): ≥ 80%
- inhibition at 200 ppm [4]: ≥ 80%
- inhibition at 200 ppm [6]: ≥ 80%
- inhibition at 200 ppm [9]: ≥ 80%
- pest or weed control at 200 ppm (Pyrenophora teres): ≥ 80%

- melting point: 259 to 260 °C
SMILES: Cc1ccccc1Cc1cccc(-c2ncc3c(n2)CC(C)(C)CC3)n1 [Compound 15]
- inhibition at 200 ppm [1]: ≥ 80%
- inhibition at 200 ppm [2]: ≥ 80%
- inhibition at 200 ppm [8]: ≥ 80%
- pest or weed control at 200 ppm [3]: ≥ 80%
- inhibition at 200 ppm [4]: ≥ 80%
- inhibition at 200 ppm [6]: ≥ 80%
- inhibition at 200 ppm [9]: ≥ 80%
- pest or weed control at 200 ppm (Pyrenophora teres): ≥ 80%

- melting point: 219 to 220 °C
SMILES: CC1(C)CCc2cnc(-c3cccc(Cc4cccc(Cl)c4)n3)nc2C1 [Compound 16]
- inhibition at 200 ppm [1]: ≥ 80%
- inhibition at 200 ppm [2]: ≥ 80%
- pest or weed control at 200 ppm [3]: ≥ 80%
- inhibition at 200 ppm [4]: ≥ 80%
- inhibition at 200 ppm [6]: ≥ 80%
- inhibition at 200 ppm [9]: ≥ 80%
- pest or weed control at 200 ppm (Pyrenophora teres): ≥ 80%

- melting point: 69 to 75 °C
SMILES: O=C1CCCc2nc(-c3cccc(Cc4ccccc4)n3)ncc21 [Compound 20]
- inhibition at 200 ppm [2]: ≥ 80%
- inhibition at 200 ppm (Gaeumannomyces graminis): ≥ 80%
- inhibition at 200 ppm [4]: ≥ 80%
- inhibition at 200 ppm [6]: ≥ 80%
- inhibition at 200 ppm [9]: ≥ 80%

- melting point: 286 to 288 °C
SMILES: COc1ccc(OC)c(Cc2cccc(-c3ncc4c(n3)CCOC4)n2)c1 [Compound 22]
- inhibition at 200 ppm [2]: ≥ 80%
- inhibition at 200 ppm (Gaeumannomyces graminis): ≥ 80%
- pest or weed control at 200 ppm [3]: ≥ 80%
- inhibition at 200 ppm [4]: ≥ 80%
- pest or weed control at 200 ppm [5]: ≥ 80%
- pest or weed control at 200 ppm [7]: ≥ 80%
- inhibition at 200 ppm [9]: ≥ 80%
- pest or weed control at 200 ppm (Pyrenophora teres): ≥ 80%
